Laboratory results published in patent US20170274014A1, “COMBINATIONS OF LOW, IMMUNE ENHANCING, DOSES OF MTOR INHIBITORS AND CARS” (Novartis AG, priority 2014, published 2017).
Where “and” joins values, the source holds several entries; their conditions need not be identical. Equal entries are not always repeated. Where two headings read alike, the source gives them in different places.

How the values were obtained:
[1] = in vivo
[2] = elderly subjects
NALM6-luc tumors = experiment: Growth of NALM6-luc tumors in NSG mice; format: in vivo; details: daily oral dosing of RAD001 alone
huCART19 cells = experiment: 4 day co-culture proliferation assay of CART cells with NALM6 target cells; format: cell-based, human; details: 4 day co-culture with NALM6, 1:1
[3] = test system: H1N1 A/California/07/2009; experiment: Hemagglutination inhibition titers after seasonal influenza vaccination, A/H1N1 vaccine strain; format: in vivo, human; details: for HI GMT A/H1N1, Baseline: 2 weeks prior to influenza vaccination; for HI GMT A/H1N1, Week 4: 4 weeks after influenza vaccination
Procedure: (§1) The trial was observer-blind because the placebo in the RAD001 0.5 mg daily and 20 mg weekly cohorts differed slightly from the RAD001 tablets in those cohorts. […] The treatment duration for all cohorts was 6 weeks during which time subjects underwent safety evaluations in the clinic every 2 weeks. After subjects had been dosed for 4 weeks, RAD001 steady state levels were measured pre-dose and at one hour post dose. After completing the 6 week course of study drug, subjects were given a 2 week drug free break to reverse any possible RAD001-induced immunosuppression, and then were given a 2012 seasonal influenza vaccination (Agrippal®, Novartis Vaccines and Diagnostics, Siena, Italy) containing the strains H1N1 A/California/07/2009, H3N2 A/Victoria/210/2009, B/Brisbane/60/2008. Four weeks after influenza vaccination, subjects had serum collected for influenza titer measurements. Antibody titers to the 3 influenza vaccine strains as well as to 2 heterologous strains (A/H1N1 strain A/New Jersey/8/76 and A/H3N2 strain A/Victoria/361/11) were measured by standard hemagglutination inhibition assay (Kendal, A P et al. (1982) Concepts and procedures for laboratory-based influenza surveillance. Atlanta: Centers for Disease Control and Prevention B17-B35). Levels of IgG and IgM specific for the A/H1N1/California/07/2009 were measured in serum samples taken before and 4 weeks after influenza vaccination as described previously (Spensieri, F. et al. (2013) Proc. Natl. Acad. Sci. USA 110:14330-14335). Results were expressed as fluorescence intensity.
(§2) The primary analysis of geometric mean titer ratios was done using a normal Bayesian regression model with non-informative priors. This model was fitted to each antibody titer on the log scale. The primary outcome in each model was the Day 84 measurement. The Day 63 measurement was included in the outcome vector. The model fitted using SAS 9.2 proc mixed with the prior statement. The covariance structure of the matrix was considered as unstructured (option type=UN). A flat prior was used. For the secondary analysis of seroconversion rates, logistic regression was used.
(§3) The ability of RAD001 to improve immune function in elderly volunteers was evaluated by measuring the serologic response to the 2012 seasonal influenza vaccine. The hemagglutination inhibition (HI) geometric mean titers (GMT) to each of the 3 influenza vaccine strains at baseline and 4 weeks after influenza vaccination are provided in Table 6. The primary analysis variable was the HI GMT ratio (4 weeks post vaccination/baseline).
(§4) Rates of seroconversion 4 weeks after influenza vaccination were also evaluated. Seroconversion was defined as the change from a negative pre-vaccination titer (i.e., HI titer <1:10) to post-vaccination HI titer ≧1:40 or at least 4-fold increase from a non-negative (≧1:10) pre-vaccination HI titer.

[4] = test system: PD-1-positive CD4, CD8 and PD-1-negative CD4 T cells; set-up: species or system human; details: in vivo
[5] = test system: CAR-expressing, transduced T cells; experiment: CART co-culture with NALM6 cells in presence of RAD001; details: low doses of RAD001, 4 days
[6] = test system: A/H1N1 strain A/New Jersey/8/76; format: in vivo, human
[7] = test system: A/H1N1/California/07/2009 influenza; experiment: Anti-A/H1N1/California/07/2009 influenza IgG and IgM levels in serum before and after vaccination; format: in vivo, human; details: all p values >0.05 by Kruskal-Wallis rank sum test
Procedure: FIGS. 4A and 4B are graphic representations of IgG and IgM levels before and after influenza vaccination. Levels of anti-A/H1N1/California/07/2009 influenza IgG and IgM were measured in serum obtained from subjects before and 4 weeks post influenza vaccination.

B/Brisbane/60/2008 = experiment: Hemagglutination inhibition titers after seasonal influenza vaccination, B vaccine strain; format: in vivo, human; details: for HI GMT B, Baseline: 2 weeks prior to influenza vaccination; for HI GMT B, Week 4: 4 weeks after influenza vaccination
Procedure: as §1, §2, §3, §4

H3N2 A/Victoria/210/2009 = experiment: Hemagglutination inhibition titers after seasonal influenza vaccination, A/H3N2 vaccine strain; format: in vivo, human; details: for HI GMT A/H3N2, Baseline: 2 weeks prior to influenza vaccination; for HI GMT A/H3N2, Week 4: 4 weeks after influenza vaccination
Procedure: as §1, §2, §3, §4

[8] = Intention to Treat Population, 0.5 mg, N = 48
[9] = Intention to Treat Population, 5 mg, N = 49
[10] = Intention to Treat Population, 20 mg, N = 48
[11] = Subjects with Baseline Titers <=40, 0.5 mg
[12] = Subjects with Baseline Titers <=40, 5 mg
[13] = Subjects with Baseline Titers <=40, 20 mg

CO[C@H]1C[C@@H]2CC[C@@H](C)[C@@](O)(O2)C(=O)C(=O)N2CCCC[C@H]2C(=O)O[C@H]([C@H](C)C[C@@H]2CC[C@@H](OCCO)[C@H](OC)C2)CC(=O)[C@H](C)/C=C(\C)[C@@H](O)[C@@H](OC)C(=O)[C@H](C)C[C@H](C)/C=C/C=C/C=C/1C [RAD001, (1R,9S,12S,15R,16E,18R,19R,21R,23S,24E,26E,28E,30S,32S,35R)-1,18-dihydroxy-12-{(1R)-2-[(1S,3R,4R)-4-(2-hydroxyethoxy)-3-methoxycyclohexyl]-1-methylethyl}-19,30-dimethoxy-15,17,21,23,29,35-hexamethyl-11,36-dioxa-4-aza-tricyclo[30.3.1.04,9]hexatriaconta-16,24,26,28-tetraene-2,3,10,14,20-pentaone]
Trough level of the immunization study regimens relative to approved transplant and oncology regimens ([1]; human): 3-20 fold lower
Average RAD001 trough level [1]: below detection limits
exercise and energy [2]: increases in exercise and energy
Impact on the growth of NALM6-luc tumors (NALM6-luc tumors): did not have an impact
RAD001 concentration in whose presence huCART19 cells expanded (lesser extent at higher concentrations) (huCART19 cells): less than 0.016 nM
HI GMT ratio A/H1N1 (week 4 post vaccination/baseline) ([3]; 0.5 mg daily, N = 50): 2.6
HI GMT A/H1N1, Baseline ([3]; 0.5 mg daily, N = 50): 102.8
HI GMT A/H1N1, Week 4 ([3]; 0.5 mg daily, N = 50): 190.2
HI GMT ratio A/H1N1 (week 4 post vaccination/baseline) ([3]; 5 mg weekly, N = 49): 2.5
HI GMT A/H1N1, Baseline ([3]; 5 mg weekly, N = 49): 84.2
HI GMT A/H1N1, Week 4 ([3]; 5 mg weekly, N = 49): 198.73
HI GMT ratio A/H1N1 (week 4 post vaccination/baseline) ([3]; 20 mg weekly, N = 49): 1.8
HI GMT A/H1N1, Baseline ([3]; 20 mg weekly, N = 49): 90.1
HI GMT A/H1N1, Week 4 ([3]; 20 mg weekly, N = 49): 129.7
Percent of subjects with seroconversion to influenza H1N1 4 weeks after vaccination [3, 8]: 27%
Percent of subjects with seroconversion to influenza H1N1 4 weeks after vaccination [3, 9]: 27%
Percent of subjects with seroconversion to influenza H1N1 4 weeks after vaccination [3, 10]: 17%
Percent of subjects with seroconversion to influenza H1N1 4 weeks after vaccination [3, 11]: 42%
Percent of subjects with seroconversion to influenza H1N1 4 weeks after vaccination [3, 12]: 45%
Percent of subjects with seroconversion to influenza H1N1 4 weeks after vaccination [3, 13]: 36%
decrease in PD-1+ CD4 T cells, pooled RAD cohort compared to placebo [4]: 30.2%
decrease in PD-1-positive CD4 T cells as compared to placebo cohort [4]: −37.1-−28.5%
decrease in PD-1-positive CD4 T cells, pooled RAD cohort compared to placebo [4]: 32.7%
decrease in PD-1-positive CD8 T cells as compared to placebo cohort [4]: −43.3-−38.5%
decrease in PD-1-positive CD8 T cells, pooled RAD001 cohort compared to placebo [4]: 37.4% and 41.4%
increase in PD-1-negative CD4 T cells as compared to placebo cohort [4]: 3.0-4.9%
proliferation of CAR-expressing, transduced T cells [5]: enhanced
Percentage of subjects who seroconvert to heterologous A/H1N1 strain A/NewJersey/8/76 4 weeks after seasonal influenza vaccination ([6]; 0.5 mg daily): 17%
Percentage of subjects who seroconvert to heterologous A/H1N1 strain A/NewJersey/8/76 4 weeks after seasonal influenza vaccination ([6]; 5 mg weekly): 16%
Percentage of subjects who seroconvert to heterologous A/H1N1 strain A/NewJersey/8/76 4 weeks after seasonal influenza vaccination ([6]; 20 mg weekly): 8%
Increase in the HI GMT ratio for the heterologous strain ([6]; RAD001 vs placebo cohorts): higher in the RAD001 as compared to placebo cohorts
change from baseline to 4 weeks post vaccination in anti-H1N1 influenza IgG and IgM levels, RAD001 versus placebo cohorts [7]: No significant difference
HI GMT ratio B (week 4 post vaccination/baseline) (B/Brisbane/60/2008; 0.5 mg daily, N = 50): 2.5
HI GMT B, Baseline (B/Brisbane/60/2008; 0.5 mg daily, N = 50): 44.2
HI GMT B, Week 4 (B/Brisbane/60/2008; 0.5 mg daily, N = 50): 98.4
HI GMT ratio B (week 4 post vaccination/baseline) (B/Brisbane/60/2008; 5 mg weekly, N = 49): 2.2
HI GMT B, Baseline (B/Brisbane/60/2008; 5 mg weekly, N = 49): 64.8
HI GMT B, Week 4 (B/Brisbane/60/2008; 5 mg weekly, N = 49): 117.3
HI GMT ratio B (week 4 post vaccination/baseline) (B/Brisbane/60/2008; 20 mg weekly, N = 49): 2.1
HI GMT B, Baseline (B/Brisbane/60/2008; 20 mg weekly, N = 49): 58.0
HI GMT B, Week 4 (B/Brisbane/60/2008; 20 mg weekly, N = 49): 99.2
Percent of subjects with seroconversion to influenza B 4 weeks after vaccination (B/Brisbane/60/2008; [8]): 27%
Percent of subjects with seroconversion to influenza B 4 weeks after vaccination (B/Brisbane/60/2008; [9]): 22%
Percent of subjects with seroconversion to influenza B 4 weeks after vaccination (B/Brisbane/60/2008; [10]): 19%
Percent of subjects with seroconversion to influenza B 4 weeks after vaccination (B/Brisbane/60/2008; Subjects with Baseline Titers <=40, 0.5 mg, * p < 0.05 vs placebo): 40* Percent
Percent of subjects with seroconversion to influenza B 4 weeks after vaccination (B/Brisbane/60/2008; [12]): 33%
Percent of subjects with seroconversion to influenza B 4 weeks after vaccination (B/Brisbane/60/2008; [13]): 28%
HI GMT ratio A/H3N2 (week 4 post vaccination/baseline) (H3N2 A/Victoria/210/2009; 0.5 mg daily, N = 50): 2.1
HI GMT A/H3N2, Baseline (H3N2 A/Victoria/210/2009; 0.5 mg daily, N = 50): 106.8
HI GMT A/H3N2, Week 4 (H3N2 A/Victoria/210/2009; 0.5 mg daily, N = 50): 194.4
HI GMT ratio A/H3N2 (week 4 post vaccination/baseline) (H3N2 A/Victoria/210/2009; 5 mg weekly, N = 49): 2.0
HI GMT A/H3N2, Baseline (H3N2 A/Victoria/210/2009; 5 mg weekly, N = 49): 126.04
HI GMT A/H3N2, Week 4 (H3N2 A/Victoria/210/2009; 5 mg weekly, N = 49): 223.0
HI GMT ratio A/H3N2 (week 4 post vaccination/baseline) (H3N2 A/Victoria/210/2009; 20 mg weekly, N = 49): 2.1
HI GMT A/H3N2, Baseline (H3N2 A/Victoria/210/2009; 20 mg weekly, N = 49): 137.1
HI GMT A/H3N2, Week 4 (H3N2 A/Victoria/210/2009; 20 mg weekly, N = 49): 223.0
Percent of subjects with seroconversion to influenza H3N2 4 weeks after vaccination (H3N2 A/Victoria/210/2009; [8]): 27%
Percent of subjects with seroconversion to influenza H3N2 4 weeks after vaccination (H3N2 A/Victoria/210/2009; [9]): 24%
Percent of subjects with seroconversion to influenza H3N2 4 weeks after vaccination (H3N2 A/Victoria/210/2009; [10]): 25%
Percent of subjects with seroconversion to influenza H3N2 4 weeks after vaccination (H3N2 A/Victoria/210/2009; [11]): 64%
Percent of subjects with seroconversion to influenza H3N2 4 weeks after vaccination (H3N2 A/Victoria/210/2009; [12]): 53%
Percent of subjects with seroconversion to influenza H3N2 4 weeks after vaccination (H3N2 A/Victoria/210/2009; [13]): 71%
